From article PMC4117768, “Conjugation with polyamines enhances the antibacterial and anticancer activity of chloramphenicol” (Nucleic Acids Research, 2014) come the findings set out here.

In test [1] the test system is U937 (histiocytic lymphoma) cells. The experiment in a line: Toxicity assay in leukemic cell line (cell counting). The test is classed as cell-based, human. The note with it: increasing concentrations. As to the method: Human leukemic cell lines, HS-Sultan (Burkitt's lymphoma) (European Collection of Cell Cultures, Salisbury, UK), Jurkat (T-cell acute lymphoblastic leukemia) and U937 (histiocytic lymphoma) (American Type Culture Collection, Manassas, USA), were adjusted to 1 × 10^9 cells/l in RPMI-1640 medium containing 1% Penicillin/Streptomycin and 10% fetal bovine serum and grown in triplicate in the presence or absence of CAM or PA–CAM conjugates for 4 days at 37°C, under a humidified 5% CO2 atmosphere. The medium was changed after 2 days of exposure; CAM or PA-CAM addition was repeated after medium change to keep the appropriate drug concentration. Aliquots were collected daily and counted in a CELL-DYN 3700 Hematology Analyzer. For cell necrosis and apoptosis assays, samples (10^6 cells) were collected daily and determined using the Annexin V-PE Apoptosis Detection Kit I (BD Pharmingen) for flow cytometry ([29]), as described by the manufacturer. Flow cytometry data were analyzed using the FlowJo flow cytometry analysis software. Necrotic and apoptotic cells were expressed as a percentage of total cells.
Figure S2. Toxicity assays in leukemic cell lines. […] Aliquots were collected daily and counted in a CELL-DYN 3700 Hematology Analyzer.

Test [2] concerns central loop of Domain V of 23S rRNA, E. coli ribosomes. The experiment in a line: Time-resolved footprinting of PA–CAM conjugates bound to ribosomes (DMS, kethoxal, CMCT probing, primer extension). The class given is binding. The note with it: conjugate at 50 × Ki, 25°C, ratio to control lane R. As to the method:
Complexes RI and R*I were then probed at 37°C for 10 min with DMS, kethoxal or CMCT, as described previously ([30]). The modified sites in 23S rRNA were then analyzed by primer extension with reverse transcriptase, according to Moazed et al. ([30]). […] Extension products were run on 6% polyacrylamide/7M urea gels. Identification of the modified nucleotides, quantitative scanning of the gels and normalization of the band intensities were made as previously described ([4]). The values indicated in Table 2 denote the ratio between the normalized intensity of a band of interest and the normalized intensity of the corresponding band in the control lane (ribosomes non-treated with drugs).

For test [3], the system named is complex C (poly(U)-programmed ribosomes from E. coli bearing Ac[3H]Phe-tRNA at the P-site), peptidyl transferase. The experiment in a line: Inhibition of AcPhe-puromycin synthesis (puromycin reaction, peptide bond formation). The test is classed as biochemical. The note with it: for Ki: 25°C, buffer A. As to the method: Isolation of 70S ribosomes from E. coli K12 cells and preparation of Ac[^3H]Phe-tRNA^Phe charged to 80% were performed, as described previously ([23]). The post-translocation complex of poly(U)-programmed ribosomes (complex C), bearing tRNA^Phe at the E-site and Ac[^3H]Phe-tRNA at the P-site was prepared in buffer A (100 mM Tris-HCl pH 7.2, 6 mM (CH3COO)2Mg, 100 mM NH4Cl and 6 mM 2-mercaptoethanol). The percentage of active ribosomes in AcPhe-tRNA binding was 72%. This ribosomal population was more than 90% reactive toward puromycin.
The reaction between complex C and excess puromycin (S), a pseudo-substrate which binds to the ribosomal A-site, was performed at 25°C in buffer A and analyzed as described in detail elsewhere ([11]). Briefly, since the reaction followed first-order kinetics, the first-order rate constant kobs at each concentration of puromycin was determined by fitting the corrected x-values into Equation ([1]), (1) where x is the product Ac[^3H]Phe-puromycin expressed as the percentage of complex C radioactivity added in the reaction mixture and t the time of the reaction. kobs is related to the puromycin concentration, [S], by the relationship, (2) where kcat is the catalytic rate constant of PTase and KS the affinity constant of puromycin for complex C.
In the presence of CAM–polyamine conjugates, biphasic logarithmic time plots were obtained. The slope of the straight line through the origin was taken as the value of the apparent rate constant, kobs(early), at the early phase of the reaction, while the slope of the second straight line was taken as the value of the rate constant, kobs(late), at the late phase of the reaction.

Structures are written as SMILES. Where “and” joins values, the source holds several entries; their conditions need not be identical. Equal values may be shown once. Marks after values point to notes of the source that are not given here.

As usually defined, the Ki is the equilibrium dissociation constant of an inhibitor or competing ligand from its target. Read a high Ki as lower affinity.

In the case of `NCCCN(CCCCN(Cc1ccccc1)Cc1ccccc1)C(=O)CCC(=O)N[C@H](CO)[C@H](O)c1ccc([N+](=O)[O-])cc1` [Compound 4], the “sensitivity of cells (cell counting)” value in test [1] is “insensitive”. In test [2] (R*I binding state (3 min)), the “Relative reactivity of nucleoside A2058” value is reported as 1.25 ± 0.09^b,c, the “Relative reactivity of nucleoside A2059” value is on record as 0.60 ± 0.03^b,c, the “Relative reactivity of nucleoside A2062” value is on record as 0.52 ± 0.02^b,c and the “Relative reactivity of nucleoside A2451” value is given as 0.53 ± 0.05^b. In test [2] (R*I binding state (3 min)), the “Relative reactivity of nucleoside A2602” value is 0.88 ± 0.08, the “Relative reactivity of nucleoside G2505” value was 0.35 ± 0.02^b,c, the “Relative reactivity of nucleoside U2506” value is listed as 0.65 ± 0.04^b and the “Relative reactivity of nucleoside U2585” value is 0.45 ± 0.02^b,c. The “Relative reactivity of nucleoside U2609” value in test [2] (R*I binding state (3 min)) was found to be 1.00 ± 0.07. In test [2] (RI binding state (2 s)), the “Relative reactivity of nucleoside A2058” value came to 1.00 ± 0.05, the “Relative reactivity of nucleoside A2059” value stood at 1.00 ± 0.06, the “Relative reactivity of nucleoside A2062” value amounted to 1.00 ± 0.05 and the “Relative reactivity of nucleoside A2451” value is 0.48 ± 0.02^b. Also, in test [2] (RI binding state (2 s)), the “Relative reactivity of nucleoside A2602” value was found to be 1.00 ± 0.10, the “Relative reactivity of nucleoside G2505” value is recorded as 0.65 ± 0.05^b, the “Relative reactivity of nucleoside U2506” value is given as 0.70 ± 0.05^b and the “Relative reactivity of nucleoside U2609” value is reported as 1.00 ± 0.09. Also, the Ki in test [3] (early phase of the reaction (encounter complex CI)) was 0.975 µM and 0.98 µM. Also, the inhibition constant (Ki) in test [3] (late phase of the reaction (complex C*I)) was 0.28 ± 0.03 µM. In addition, the “potency relative to CAM, based on Kik7/(k6 + k7)” value in test [3] (overall two-step inhibition of the puromycin reaction) worked out at 3 fold.
